Results published in patent publication US20120284853A1, “HERBICIDE-TOLERANT PLANTS” (BASF AGROCHEMICAL PRODUCTS, B.V., priority 2009, published 2012).

Legend:
[1] = tested on: ACCase-inhibitor tolerant rice plants; experiment: Field treatment of ACCase-inhibitor tolerant rice plants; assay type: in vivo; details: 600 g/ha treatment; data not shown
[2] = tested on: rice plants; experiment: Greenhouse spray test of M0 regenerants, rated for herbicide injury; assay type: in vivo; details: 400-1600 g ai/ha with 0.1% methylated seed oil, subset 800 g ai/ha, rated 1 and 2 weeks after treatment
Description: Selected mutants and escapes were transferred to small pots. Wild-type cultivars and 3 biovars of red rice were germinated from seed to serve as controls.
After ca. 3 weeks post-transplant, M0 regenerants were sprayed using a track sprayer with 400-1600 g ai/ha cycloxydim (BAS 517H) supplemented with 0.1% methylated seed oil. After the plants had adapted to greenhouse conditions, a subset were sprayed with 800 g ai/ha cycloxydim. Once sprayed, plants were kept on drought conditions for 24 hours before being watered and fertilized again. Sprayed plants were photographed and rated for herbicide injury at 1 (FIG. 3) and 2 weeks after treatment (FIG. 4). […] FIGS. 5-15 provide nucleic acid and/or amino acid sequences of acetyl-Coenzyme A carboxylase enzymes from various plants. FIG. 17 provides a graph showing results for mutant rice versus various ACCase inhibitors.

[3] = tested on: rice calli derived from Oryza sativa subsp. indica; experiment: Kill curves of rice calli in tissue culture (toxic levels of ACCase inhibitors); assay type: cell-based; details: determined by kill curves and observations of continued culture; rice calli on R001M
Description: FIG. 1 is a bar graph showing relative growth rice calli derived from Oryza sativa subsp. indica grown in the presence of difference selection levels of herbicide.
Once tissue culture conditions were determined, further establishment of selection conditions were established through the analysis of tissue survival in kill curves with cycloxydim, tepraloxydim, sethoxydim (FIG. 1) or haloxyfop (not shown). Careful consideration of accumulation of the herbicide in the tissue, as well as its persistence and stability in the cells and the culture media was performed. Through these experiments, a sub-lethal dose has been established for the initial selection of mutated material.
After the establishment of the starting dose of sethoxydim, cycloxydim, tepraloxydim, and haloxyfop in selection media, the tissues were selected in a step-wise fashion by increasing the concentration of the ACCase inhibitor with each transfer until cells are recovered that grew vigorously in the presence of toxic doses (see FIG. 2). […] Over 26,000 calli were subjected to selection for 4-5 subcultures until the selective pressure was above toxic levels as determined by kill curves and observations of continued culture. Toxic levels were determined to be 50 μM sethoxydim, 20 μM cycloxydim, 2.5 μM tepraloxydim (FIG. 1) and 10 μM haloxyfop (not shown).

SMILES	herbicide tolerance phenotype in the field [1]	herbicide injury ([2]; control plants and tissue culture escapes)	herbicide injury ([2]; plants containing the I1,781(Am)L heterozygous mutation)	Toxic levels [3] [µM]
CCCC(=NOCC)C1=C(O)CC(C2CCCSC2)CC1=O (centres unmarked) [cycloxydim]	Herbicide tolerance phenotypes as described herein have also been exhibited	heavily damaged	No injury	
CCC/C(=N\OCC)C1=C(O)CC(CC(C)SCC)CC1=O (centres unmarked) [sethoxydim]				50
CC/C(=N\OC/C=C/Cl)C1=C(O)CC(C2CCOCC2)CC1=O (centres unmarked) [tepraloxydim]				2.5
